We go through 16 molecules from patent US11434242B2, “Dopamine-b-hydroxylase inhibitors” (BIAL-PORTELA & Cª, S.A., priority 2017, dated 2022).

The assay addresses T1, Dopamine beta hydroxylase (Homo sapiens, UniProt P09172).
T1 construct: 125 μl of plasma; tissue Instituto Português do Sangue Transplantação; host or cells: human plasma from healthy donors
T1 sequence (P09172 40-617 limits assumed): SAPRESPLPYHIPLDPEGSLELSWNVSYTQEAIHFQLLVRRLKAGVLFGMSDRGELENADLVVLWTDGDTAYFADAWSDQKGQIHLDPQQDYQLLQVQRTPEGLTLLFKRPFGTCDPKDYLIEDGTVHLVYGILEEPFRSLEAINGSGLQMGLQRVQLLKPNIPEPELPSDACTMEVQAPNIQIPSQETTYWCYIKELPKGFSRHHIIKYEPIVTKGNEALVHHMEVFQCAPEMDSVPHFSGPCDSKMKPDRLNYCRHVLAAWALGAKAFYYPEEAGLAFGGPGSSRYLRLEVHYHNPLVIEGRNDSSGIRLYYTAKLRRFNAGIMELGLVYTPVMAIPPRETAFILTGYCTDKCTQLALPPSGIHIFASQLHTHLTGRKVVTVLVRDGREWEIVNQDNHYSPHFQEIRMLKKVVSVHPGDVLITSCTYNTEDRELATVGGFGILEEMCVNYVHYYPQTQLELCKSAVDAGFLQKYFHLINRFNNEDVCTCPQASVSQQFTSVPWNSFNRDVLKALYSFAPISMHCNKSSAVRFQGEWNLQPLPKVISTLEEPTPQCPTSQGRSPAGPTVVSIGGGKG
Kind of assay: Dopamine beta hydroxylase activity in human plasma. The following applies: for Plasma (0.01 μM), activity in % of control: inhibitor 0.01 μM; for Plasma (0.1 μM), activity in % of control: inhibitor 0.1 μM; for Plasma (1 μM), activity in % of control: inhibitor 1 μM. The format is biochemical. Summed up: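 Octopamine production from tyramine over 45 min at 37° C, measured photometrically at 330 nm after SCX extraction and periodate oxidation against an octopamine standard curve, indicates plasma DβH activity. Compounds tested at final 10, 100 and 1000 nM in human plasma, pH 5.0 cofactor buffer, 10 min preincubation; results as % of control.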

Regarding `CN(C(=O)Cc1c2n(c(=S)n1C)C[C@@H](c1c(F)c(F)cc(F)c1F)C2)C1COC1` [Example 398, (R)—N-methyl-2-(2-methyl-6-(2,3,5,6-tetrafluorophenyl)-3-thioxo-2,5,6,7-tetrahydro-3H-pyrrolo[1,2-c]imidazol-1-yl)-N-(oxetan-3-yl)acetamide], the “Plasma (0.01 μM), activity in % of control” value is on record as 94.3 % of control and the “Plasma (0.1 μM), activity in % of control” value is 23.0 % of control.
With `[2H]C([2H])([2H])n1c(CC(=O)N[C@@H]2CCCOC2)c2n(c1=S)C[C@@]1(c3cc(Br)ccc3F)C[C@@H]21` [Example 464, 2-((5aS,6aR)-5a-(5-bromo-2-fluorophenyl)-2-(methyl-d)-3-thioxo-2,3,5,5a,6,6a-hexahydrocyclopropa[3,4]pyrrolo[1,2-c]imidazol-1-yl)-N—((R)-tetrahydro-2H-pyran-3-yl)acetamide], the “Plasma (0.01 μM), activity in % of control” value is given as 33.4 % of control and the “Plasma (0.1 μM), activity in % of control” value is listed as 4.5 % of control.
Consider `CC(C)(C)OC(=O)N1CCC[C@@H]1CNC(=O)Cc1[nH]c(=S)n2c1C[C@@H](c1c(F)ccc(Br)c1F)C2` [Example 122, tert-butyl (R)-2-((2-((S)-6-(3-bromo-2,6-difluorophenyl)-3-thioxo-2,5,6,7-tetrahydro-3H-pyrrolo[1,2-c]imidazol-1-yl)acetamido)methyl)pyrrolidine-1-carboxylate], for which the “Plasma (0.01 μM), activity in % of control” value is on record as 70.8 % of control and the “Plasma (0.1 μM), activity in % of control” value was 13.0 % of control.
The like results for `Cl.Fc1cc(F)c(F)c([C@H]2Cc3c(CN4CCCC4)[nH]c(=S)n3C2)c1F` [Example 210, (R)-1-(pyrrolidin-1-ylmethyl)-6-(2,3,5,6-tetrafluorophenyl)-2,5,6,7-tetrahydro-3H-pyrrolo[1,2-c]imidazole-3-thione hydrochloride] were, in that order, 94.6 % of control and 73.5 % of control.
On to `CC(C)NC(=O)Cc1[nH]c(=S)n2c1C[C@@H](c1c(F)ccc(Cl)c1F)C2` [Example 88, (S)-2-(6-(3-chloro-2,6-difluorophenyl)-3-thioxo-2,5,6,7-tetrahydro-3H-pyrrolo[1,2-c]imidazol-1-yl)-N-isopropylacetamide], for which the “Plasma (0.1 μM), activity in % of control” value is 44.1 % of control and the “Plasma (1 μM), activity in % of control” value was 6.1 % of control.
As for `O=C(Cc1[nH]c(=S)n2c1[C@@H]1C[C@]1(c1c(F)ccc(Cl)c1F)C2)NCCn1cccn1` [Example 142, N-(2-(1H-pyrazol-1-yl)ethyl)-2-((5aS,6aR)-5a-(3-chloro-2,6-difluorophenyl)-3-thioxo-2,3,5,5a,6,6a-hexahydrocyclopropa[3,4]pyrrolo[1,2-c]imidazol-1-yl)acetamide], the “Plasma (0.01 μM), activity in % of control” value is given as 60.0 % of control and the “Plasma (0.1 μM), activity in % of control” value is given as 16.2 % of control.
Take `O=C(Cc1[nH]c(=S)n2c1C[C@@H](c1c(F)ccc(Br)c1F)C2)NC1CCOCC1` [Example 410, (S)-2-(6-(3-bromo-2,6-difluorophenyl)-3-thioxo-2,5,6,7-tetrahydro-3H-pyrrolo[1,2-c]imidazol-1-yl)-N-(tetrahydro-2H-pyran-4-yl)acetamide]: the “Plasma (0.01 μM), activity in % of control” value was 62.3 % of control and the “Plasma (0.1 μM), activity in % of control” value is given as 11.1 % of control.
For `Fc1ccc(Br)c(F)c1[C@H]1Cc2c(CCN3CCC(F)(F)CC3)[nH]c(=S)n2C1` [Example 177, (R)-6-(3-bromo-2,6-difluorophenyl)-1-(2-(4,4-difluoropiperidin-1-yl)ethyl)-2,5,6,7-tetrahydro-3H-pyrrolo[1,2-c]imidazole-3-thione], in that order: 99.9 % of control and 77.1 % of control.
As to `O=C(Cc1[nH]c(=S)n2c1C[C@H](c1c(F)c(F)cc(F)c1F)C2)N1CCC(O)CC1` [Example 82, (R)-1-(4-hydroxypiperidin-1-yl)-2-(6-(2,3,5,6-tetrafluorophenyl)-3-thioxo-2,5,6,7-tetrahydro-3H-pyrrolo[1,2-c]imidazol-1-yl)ethan-1-one], the “Plasma (0.1 μM), activity in % of control” value is reported as 69.2 % of control and the “Plasma (1 μM), activity in % of control” value is given as 16.6 % of control.
Take `O=C(Cc1[nH]c(=S)n2c1[C@@H]1C[C@]1(c1cc(Cl)ccc1F)C2)NCc1ccccc1` [Example 156, N-benzyl-2-((5aS,6aR)-5a-(5-chloro-2-fluorophenyl)-3-thioxo-2,3,5,5a,6,6a-hexahydrocyclopropa[3,4]pyrrolo[1,2-c]imidazol-1-yl)acetamide]: the “Plasma (0.01 μM), activity in % of control” value is recorded as 88.6 % of control and the “Plasma (0.1 μM), activity in % of control” value was 40.3 % of control.
For the molecule `Cn1c(CC(=O)NC2CCOCC2)c2n(c1=S)C[C@@H](c1c(F)ccc(F)c1F)C2` [Example 299, (R)-2-(2-methyl-6-(2,3,6-trifluorophenyl)-3-thioxo-2,5,6,7-tetrahydro-3H-pyrrolo[1,2-c]imidazol-1-yl)-N-(tetrahydro-2H-pyran-4-yl)acetamide], the “Plasma (0.01 μM), activity in % of control” value was 84.3 % of control and the “Plasma (0.1 μM), activity in % of control” value is on record as 48.4 % of control.
For the molecule `Cl.Cn1c(CCNCc2ccccn2)c2n(c1=S)C[C@@]1(c3cc(Cl)ccc3F)C[C@@H]21` [Example 343, (5aS,6aR)-5a-(5-chloro-2-fluorophenyl)-2-methyl-1-(2-((pyridin-2-ylmethyl)amino)ethyl)-5,5a,6,6a-tetrahydrocyclopropa[3,4]pyrrolo[1,2-c]imidazole-3(2H)-thione Hydrochloride], the “Plasma (0.01 μM), activity in % of control” value is given as 94.9 % of control and the “Plasma (0.1 μM), activity in % of control” value is listed as 59.5 % of control.
`O=C(O)CCc1[nH]c(=S)n2c1C[C@H](c1c(F)c(F)cc(F)c1F)C2` [Example 202, (R)-3-(6-(2,3,5,6-tetrafluorophenyl)-3-thioxo-2,5,6,7-tetrahydro-3H-pyrrolo[1,2-c]imidazol-1-yl)propanoic Acid]: the “Plasma (0.01 μM), activity in % of control” value is 67.7 % of control and the “Plasma (0.1 μM), activity in % of control” value is recorded as 22.7 % of control.
On to `CNC(=O)Cc1[nH]c(=S)n2c1[C@@H]1C[C@]1(c1cc(F)cc(Cl)c1)C2` [Example 68, 2-((5aS,6aR)-5a-(3-chloro-5-fluorophenyl)-3-thioxo-2,3,5,5a,6,6a-hexahydrocyclopropa[3,4]pyrrolo[1,2-c]imidazol-1-yl)-N-methylacetamide], for which the “Plasma (0.1 μM), activity in % of control” value was 55.6 % of control and the “Plasma (1 μM), activity in % of control” value is 13.5 % of control.
`O=C(Cc1[nH]c(=S)n2c1C[C@H](c1c(F)c(F)cc(F)c1F)C2)NC1CCOCC1` [Example 377, (R)—N-(tetrahydro-2H-pyran-4-yl)-2-(3-thioxo-6-(2,3,5,6-tetrafluorophenyl)-2,5,6,7-tetrahydro-3H-pyrrolo[1,2-c]imidazol-1-yl)acetamide]: the “Plasma (0.01 μM), activity in % of control” value is reported as 102.0 % of control and the “Plasma (0.1 μM), activity in % of control” value is 56.8 % of control.
`O=C(Cc1[nH]c(=S)n2c1C[C@@H](c1c(F)ccc(Br)c1F)C2)NC1CCC1` [Example 102, (S)-2-(6-(3-bromo-2,6-difluorophenyl)-3-thioxo-2,5,6,7-tetrahydro-3H-pyrrolo[1,2-c]imidazol-1-yl)-N-cyclobutylacetamide]: the “Plasma (0.1 μM), activity in % of control” value is listed as 20.3 % of control and the “Plasma (1 μM), activity in % of control” value is 1.7 % of control.
